Measurements taken from patent publication US6924302B2, “Substituted triazole diamine derivatives as kinase inhibitors” (Ortho McNeil Pharmaceutical, Inc., priority 2000, dated 2005).
Read-outs that look alike come from different tables or passages of the source.

Key:
[1] = biological target: T1, CDK1:Cyclin-B (Homo sapiens, UniProt P06493); test: CDK1 Screening Assay; format: biochemical; conditions: read-out: CDK1 IC50
T1 construct: purchased New England Biolabs 6020; host or cells: insect cells
T1 sequence (P06493 whole entry): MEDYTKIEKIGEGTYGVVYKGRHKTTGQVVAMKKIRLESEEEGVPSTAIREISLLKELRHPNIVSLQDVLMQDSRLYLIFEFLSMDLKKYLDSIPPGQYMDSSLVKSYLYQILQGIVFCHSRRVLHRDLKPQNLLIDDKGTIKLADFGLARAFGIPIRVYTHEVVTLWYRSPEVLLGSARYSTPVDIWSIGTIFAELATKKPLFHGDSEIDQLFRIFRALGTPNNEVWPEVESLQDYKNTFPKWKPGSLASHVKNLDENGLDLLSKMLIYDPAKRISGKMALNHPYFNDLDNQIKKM
T1 sequence (P14635 whole entry partner): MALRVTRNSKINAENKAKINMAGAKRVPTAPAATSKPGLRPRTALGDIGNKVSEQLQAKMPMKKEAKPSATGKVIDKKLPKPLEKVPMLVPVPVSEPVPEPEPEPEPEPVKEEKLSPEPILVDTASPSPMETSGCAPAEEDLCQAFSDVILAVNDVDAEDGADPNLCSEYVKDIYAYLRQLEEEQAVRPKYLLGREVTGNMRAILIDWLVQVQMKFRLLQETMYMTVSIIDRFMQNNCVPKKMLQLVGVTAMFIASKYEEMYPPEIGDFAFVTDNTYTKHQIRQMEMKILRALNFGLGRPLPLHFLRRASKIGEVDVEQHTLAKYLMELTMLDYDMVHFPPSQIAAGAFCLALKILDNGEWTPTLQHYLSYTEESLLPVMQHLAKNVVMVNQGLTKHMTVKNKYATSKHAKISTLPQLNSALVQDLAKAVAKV
In short: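 Human CDK1:cyclin-B (30 ng/well) with biotinylated histone-H1 peptide and ^33P-γ-ATP, 1 h at 30° C, 1% DMSO, on streptavidin FlashPlate; incorporation read by scintillation.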

[2] = biological target: T2, Protein Kinase A (Bos taurus, UniProt P00517); test: Kinase Selectivity Assay Protein Kinase A; format: biochemical, bovine; conditions: Kinase Selectivity, Tables 2a-2k; read-out: PKA IC50
T2 construct: purified from bovine heart; purchased Upstate Biotech 14-114; host or cells: bovine heart
In short: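 Reactions ran one hour at 30° C in 1% DMSO with enzyme diluted in 50 mM Tris-HCl pH 8.0, 0.1% BSA. Scintillation counting read ^33P incorporated into immobilized biotinylated peptide.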

[3] = biological target: T3, Casein Kinase 1 (CK1 delta isoform) (Rattus norvegicus, UniProt Q06486); test: Kinase Selectivity Assay Casein Kinase 1; format: biochemical; conditions: Tables 2a-2k, read-out: Caseine Kinase 1 IC50
T3 construct: a truncation at amino acid 318 of the C-terminal portion of the rat CK1 delta isoform; purchased New England Biolabs 6030; host or cells: E. coli
T3 sequence (Q06486 1-317): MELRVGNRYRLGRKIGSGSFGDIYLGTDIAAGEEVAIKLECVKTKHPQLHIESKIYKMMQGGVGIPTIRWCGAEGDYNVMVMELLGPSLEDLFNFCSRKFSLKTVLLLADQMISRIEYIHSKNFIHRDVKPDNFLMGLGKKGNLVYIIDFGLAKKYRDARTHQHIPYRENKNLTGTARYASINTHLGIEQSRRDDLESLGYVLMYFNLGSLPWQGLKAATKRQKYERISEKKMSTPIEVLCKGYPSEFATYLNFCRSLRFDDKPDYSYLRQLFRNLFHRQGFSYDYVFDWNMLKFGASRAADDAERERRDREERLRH
Procedure: Assays to test compound inhibition of other kinases were preformed using methods that measure the amount of phosphorylation of a biotinylated peptide substrate. Biotinylated peptide substrates were selected from the literature as appropriate for the enzyme being evaluated. […] Assay conditions vary slightly for each protein kinase, for example, insulin receptor kinase requires 10 mM MnCl2 for activity and Calmodulin-dependent protein kinase requires calmodulin and 10 mM CaCl2. These assay conditions are known in the art. The reaction mixture was dispensed into the wells of a streptavidin coated Flashplate and 1 μl drug stock in 100% DMSO was added to a 100 μl reaction volume resulting in a final concentration of 1% DMSO on the reaction. Enzyme was diluted in 50 mM Tris-HCl pH=8.0, 0.1% BSA and add to each well. The reaction was incubated for one hour at 30° C. in the presence of compound. After one hour the reaction mix was aspirated from the plate and the plate was washed with PBS containing 100 mM EDTA. The plate was read on a scintillation counter to determine ^33P-γ-ATP incorporated into the immobilized peptide. Test compounds were assayed in duplicate at 8 concentrations [100 uM, 10 uM, 1 uM, 100 nM, 10 nM, 1 nM, 100 pM, 10 pM]. A maximum and minimum signal for the assay was determined on each plate. The IC50 was calculated from the dose response curve of the percent inhibition of the maximum signal in the assay according to the formula [max signal—background/test compound signal—background (100)=% inhibition] by graphing the percent inhibition against the log concentration of test compound. Known inhibitor compounds appropriate for the kinase being assayed were also included on each plate.
CDK2 in complex with cyclin A is commercially available (Upstate Biotech, Lake Placid, N.Y.). The CDK4 complex was composed of a mouse CDK4 protein and a mouse Cyclin D1 protein (The mouse CDK4 protein was genetically fused to an N-terminal Flag-epitope tag and the mouse Cyclin D1 protein was fused with an N-terminal AU-1 epitope tag. The genes encoding these proteins were transferred to commercially available baculoviral vectors. The recombinant CDK4/D1 complex was then made by co-infecting commercially available insect cells with viruses carrying these two constructs). […] ERK-1 protein (Discontinued from Calbiochem). EGFR (epidermal growth factor receptor) is purified from human A431 cell membranes (Sigma, St. Louis, Mo., Cat.# E3641).

[4] = Kinase Selectivity, Tables 2a-2k

SMILES	IC50 [1, 4] [nM]	IC50 ([1]; Table 1) [nM]	IC50 [2] [µM]	IC50 [3] [nM]
Nc1nc(Nc2ccc(S(N)(=O)=O)cc2)nn1C(=O)c1c(F)cccc1F [Cpd 1, 4-[[5-amino-1-(2,6-difluorobenzoyl)-1H-1,2,4-triazol-3-yl]amino]-benzenesulfonamide]	6	6.4	> 100	–
Nc1nc(Nc2ccc(S(N)(=O)=O)cc2)nn1C(=O)c1cccs1 [Cpd 14, 4-[[5-amino-1-(2-thienylcarbonyl)-1H-1,2,4-triazol-3-yl]amino]-benzenesulfonamide]	4.5	4.5	5.43	348
Nc1nc(Nc2ccc(S(N)(=O)=O)cc2)nn1C(=O)c1sccc1F [Cpd 16, 4-[[5-amino-1-[(3-fluoro-2-thienyl)carbonyl]-1H-1,2,4-triazol-3-yl]amino]-benzenesulfonamide]	21	2.1	–	214
Nc1nc(Nc2ccc(S(N)(=O)=O)cc2)nn1C(=O)c1sccc1Cl [Cpd 17, 4-[[5-amino-1-[(3-chloro-2-thienyl)carbonyl]-1H-1,2,4-triazol-3-yl]amino]-benzenesulfonamide]	2.5	2.5	–	643
Nc1nc(Nc2ccc(S(=O)(=O)N3CCCCC3)cc2)nn1C(=O)c1cccs1 [Cpd 23, N^3-[4-(1-piperidinylsulfonyl)phenyl]-1-(2-thienylcarbonyl)-1H-1,2,4-triazole-3,5-diamine]	89	88.9	> 100	113
Nc1nc(Nc2ccc(S(N)(=O)=O)cc2)nn1C(=O)c1ccsc1 [Cpd 30, 4-[[5-amino-1-(3-thienylcarbonyl)-1H-1,2,4-triazol-3-yl]amino]-benzenesulfonamide]	17	17	–	1540
CCc1ccc(C(=O)n2nc(Nc3ccc(S(N)(=O)=O)cc3)nc2N)s1 [Cpd 32, 4-[[5-amino-1-[(5-ethyl-2-thienyl)carbonyl]-1H-1,2,4-triazol-3-yl]amino]-benzenesulfonamide]	3	3.1	> 100	181
Cc1nc(C)c(C(=O)n2nc(Nc3ccc(S(N)(=O)=O)cc3)nc2N)s1 [Cpd 34, 4-[[5-amino-1-[(2,4-dimethyl-5-thiazolyl)carbonyl]-1H-1,2,4-triazol-3-yl]amino]-benzenesulfonamide]	2	1.6	> 100	182
Nc1nc(Nc2ccc(S(N)(=O)=O)cc2)nn1C(=O)c1sccc1Br [Cpd 35, 4-[[5-amino-1-[(3-bromo-2-thienyl)carbonyl]-1H-1,2,4-triazol-3-yl]amino]-benzenesulfonamide]	–	1.1	–	–
Nc1nc(Nc2ccc(S(N)(=O)=O)cc2)nn1C(=O)C1CCCC1 [Cpd 38, 4-[[5-amino-1-(cyclopentylcarbonyl)-1H-1,2,4-triazol-3-yl]amino]-benzenesulfonamide]	–	–	> 100	6100
Nc1nc(Nc2ccc(S(N)(=O)=O)cc2)nn1C(=O)C1CCCCC1 [Cpd 39, 4-[[5-amino-1-(cyclohexylcarbonyl)-1H-1,2,4-triazol-3-yl]amino]-benzenesulfonamide]	–	–	> 100	4100
CC(C)(C)c1ccc(C(=O)n2nc(Nc3ccc(S(N)(=O)=O)cc3)nc2N)s1 [Cpd 51, 4-[[5-amino-1-[[5-(1,1-dimethylethyl)-2-thienyl]carbonyl]-1H-1,2,4-triazol-3-yl]amino]-benzenesulfonamide]	7	7	0.911	223
Cc1ccccc1C(=O)n1nc(Nc2ccc(S(N)(=O)=O)cc2)nc1N [Cpd 57, 4-[[5-amino-1-(2-methylbenzoyl)-1H-1,2,4-triazol-3-yl]amino]-benzenesulfonamide]	67	67	> 100	14000
CC(O)c1ccc(F)c(C(=O)n2nc(Nc3ccc(S(N)(=O)=O)cc3)nc2N)c1F (centres unmarked) [Cpd 58, 4-[[5-amino-1-[2,6-difluoro-3-(1-hydroxyethyl)benzoyl]-1H-1,2,4-triazol-3-yl]amino]-benzenesulfonamide]	14	14	> 100	11200
Cc1ccc(F)c(C(=O)n2nc(Nc3ccc(S(N)(=O)=O)cc3)nc2N)c1Cl [Cpd 69, 4-[[5-amino-1-(2-chloro-6-fluoro-3-methylbenzoyl)-1H-1,2,4-triazol-3-yl]amino]-benzenesulfonamide]	23	23	46.6	16600
Nc1nc(Nc2ccc(S(N)(=O)=O)cc2)nn1C(=O)c1c(F)cccc1Cl [Cpd 70, 4-[[5-amino-1-(2-chloro-6-fluorobenzoyl)-1H-1,2,4-triazol-3-yl]amino]-benzenesulfonamide]	35	35	34.2	35700
CN1CCN(c2ccc(Nc3nc(N)n(C(=O)c4c(F)cccc4F)n3)cc2)CC1 [Cpd 71, 1-(2,6-difluorobenzoyl)-N^3-[4-(4-methyl-1-piperazinyl)phenyl]-1H-1,2,4-triazole-3,5-diamine]	3710	3710	> 100	> 100000
CNS(=O)(=O)c1ccc(Nc2nc(N)n(C(=O)c3c(F)cccc3F)n2)cc1 [Cpd 80, 4-[[5-amino-1-(2,6-difluorobenzoyl)-1H-1,2,4-triazol-3-yl]amino]-N-methyl-benzenesulfonamide]	–	45.2	–	–
CNS(=O)(=O)c1ccc(Nc2nc(N)n(C(=O)c3c(F)ccc(C)c3F)n2)cc1 [Cpd 81, 4-[[5-amino-1-(2,6-difluoro-3-methylbenzoyl)-1H-1,2,4-triazol-3-yl]amino]-N-methyl-benzenesulfonamide]	–	–	> 100	6960
CNS(=O)(=O)c1ccc(Nc2nc(N)n(C(=O)c3sccc3C)n2)cc1 [Cpd 82, 4-[[5-amino-1-[(3-methyl-2-thienyl)carbonyl]-1H-1,2,4-triazol-3-yl]amino]-N-methyl-benzenesulfonamide]	9	9	> 100	354
CCc1ccc(C(=O)n2nc(Nc3ccc(S(=O)(=O)NC)cc3)nc2N)s1 [Cpd 84, 4-[[5-amino-1-[(5-ethyl-2-thienyl)carbonyl]-1H-1,2,4-triazol-3-yl]amino]-N-methyl-benzenesulfonamide]	4	3.8	2.2	188
CCc1ccc(C(=O)n2nc(Nc3ccc(S(=O)(=O)NCCN(C)C)cc3)nc2N)s1 [Cpd 103, 4-[[5-amino-1-[(5-ethyl-2-thienyl)carbonyl]-1H-1,2,4-triazol-3-yl]amino]-N-[2-(dimethylamino)ethyl]-benzenesulfonamide]	7	7.4	> 100	322
Cc1cc(C)c(C(=O)n2nc(Nc3ccc(NS(C)(=O)=O)cc3)nc2N)s1 [Cpd 108, N-[4-[[5-amino-1-[(3,5-dimethyl-2-thienyl)carbonyl]-1H-1,2,4-triazol-3-5 yl]amino]phenyl]-methanesulfonamide]	66	65.7	–	816
Nc1nc(Nc2ccc(N3CCCS3(=O)=O)cc2)nn1C(=O)c1c(F)cccc1F [Cpd 117]	–	–	> 100	13500
